In US9090576B2, “2-substituted-p-quinone derivatives for treatment of oxidative stress diseases” (Edison Pharmaceuticals, Inc., priority 2008, dated 2015):
Read-outs that look alike come from different tables or passages of the source.

Columns and labels:
Type in all cases: cell-based
[1] = tested on: Human dermal fibroblasts from Friedreich's Ataxia patients; assay: Rescue of BSO-stressed FRDA fibroblasts (Calcein AM viability); conditions: BSO-stressed FRDA fibroblasts (GM04078), less than about 150 nM, read-out: EC50, protection against FRDA
Method: An initial screen was performed to identify compounds effective for the amelioration of redox disorders. Test samples, 4 reference compounds (Idebenone, decylubiquinone, Trolox and α-tocopherol acetate), and solvent controls were tested for their ability to rescue FRDA fibroblasts stressed by addition of L-buthionine-(S,R)-sulfoximine (BSO), as described in Jauslin et al., Hum. Mol. Genet. 11(24):3055 (2002), Jauslin et al., FASEB J. 17:1972-4 (2003), and International Patent Application WO 2004/003565. […] This specific BSO-mediated cell death can be prevented by administration of antioxidants or molecules involved in the antioxidant pathway, such as α-tocopherol, selenium, or small molecule glutathione peroxidase mimetics. However, antioxidants differ in their potency, i.e. the concentration at which they are able to rescue BSO-stressed FRDA fibroblasts.
MEM (a medium enriched in amino acids and vitamins, catalog no. 1-31F24-I) and Medium 199 (M199, catalog no. 1-21F22-I) with Earle's Balanced Salts, without phenol red, were purchased from Bioconcept. Fetal Calf Serum was obtained from PAA Laboratories. Basic fibroblast growth factor and epidermal growth factor were purchased from PeproTech. Penicillin-streptomycin-glutamine mix, L-buthionine (S,R)-sulfoximine, (+)-α-tocopherol acetate, decylubiquinone, and insulin from bovine pancreas were purchased from Sigma. Trolox (6-hydroxy-2,5,7,8-tetramethylchromane-2-carboxylic acid) was obtained from Fluka. Idebenone was obtained from Chemo Iberica. Calcein AM was purchased from Molecular Probes. Cell culture medium was made by combining 125 ml M199 EBS, 50 ml Fetal Calf Serum, 100 U/ml penicillin, 100 μg/ml streptomycin, 2 mM glutamine, 10 μg/ml insulin, 10 ng/ml EGF, and 10 ng/ml bFGF; MEM EBS was added to make the volume up to 500 ml. A 10 mM BSO solution was prepared by dissolving 444 mg BSO in 200 ml of medium with subsequent filter-sterilization. During the course of the experiments, this solution was stored at +4° C. The cells were obtained from the Coriell Cell Repositories (Camden, N.J.; repository number GM04078) and grown in 10 cm tissue culture plates. Every third day, they were split at a 1:3 ratio.
The test samples were supplied in 1.5 ml glass vials. The compounds were diluted with DMSO, ethanol or PBS to result in a 5 mM stock solution. Once dissolved, they were stored at −20° C. Reference antioxidants (Idebenone, decylubiquinone, α-tocopherol acetate and trolox) were dissolved in DMSO.
Test samples were screened according to the following protocol:
(§1) A culture with FRDA fibroblasts was started from a 1 ml vial with approximately 500,000 cells stored in liquid nitrogen. Cells were propagated in 10 cm cell culture dishes by splitting every third day in a ratio of 1:3 until nine plates were available. Once confluent, fibroblasts were harvested. For 54 micro titer plates (96 well-MTP) a total of 14.3 million cells (passage eight) were re-suspended in 480 ml medium, corresponding to 100 μl medium with 3,000 cells/well. The remaining cells were distributed in 10 cm cell culture plates (500,000 cells/plate) for propagation. The plates were incubated overnight at 37° C. in an atmosphere with 95% humidity and 5% CO2 to allow attachment of the cells to the culture plate.
(§2) MTP medium (243 μl) was added to a well of the microtiter plate. The test compounds were unfrozen, and 7.5 μl of a 5 mM stock solution was dissolved in the well containing 243 μl medium, resulting in a 150 μM master solution. Serial dilutions from the master solution were made. The period between the single dilution steps was kept as short as possible (generally less than 1 second).
Plates were kept overnight in the cell culture incubator. The next day, 10 μl of a 10 mM BSO solution were added to the wells, resulting in a 1 mM final BSO concentration. Forty-eight hours later, three plates were examined under a phase-contrast microscope to verify that the cells in the 0% control (wells E1-H1) were clearly dead. […]

[2] = tested on: human dermal fibroblasts from Huntington's patients; assay: Rescue of BSO-stressed fibroblasts from Huntington's patients (screen as Example A); conditions: Fibroblast, read-out: EC50, protection against Huntington's
Method: as §1, §2
(§3) Plates were kept overnight in the cell culture incubator. The next day, 10 μl of a 10 mM BSO solution were added to the wells, resulting in a 1 mM final BSO concentration. Forty-eight hours later, three plates were examined under a phase-contrast microscope to verify that the cells in the 0% control (wells E1-H1) were clearly dead. The medium from all plates was discarded, and the remaining liquid was removed by gently tapping the plate inversed onto a paper towel.
(§4) 100 μl of PBS containing 1.2 μM Calcein AM were then added to each well. The plates were incubated for 50-70 minutes at room temperature. After that time the PBS was discarded, the plate gently tapped on a paper towel and fluorescence (excitation/emission wavelengths of 485 nm and 525 nm, respectively) was read on a Gemini fluorescence reader. Data was imported into Microsoft Excel (EXCEL is a registered trademark of Microsoft Corporation for a spreadsheet program) and used to calculate the EC50 concentration for each compound.
Compounds of the invention were tested using the screen as described in Example A, but substituting FRDA cells with Huntington's cells obtained from the Coriell Cell Repositories (Camden, N.J.; repository number GM 04281). The compounds were tested for their ability to rescue human dermal fibroblasts from Huntington's patients from oxidative stress.

[3] = tested on: human dermal fibroblasts from LHON patients; assay: Rescue of BSO-stressed fibroblasts from LHON patients (screen as Example A); conditions: Fibroblast, read-out: EC50, protection against LHON
Method: as §1, §2, §3, §4
Compounds of the invention were screened as described in Example A, but substituting FRDA cells with Leber's Hereditary Optic Neuropathy (LHON) cells obtained from the Coriell Cell Repositories (Camden, N.J.; repository number GM03858). The compounds were tested for their ability to rescue human dermal fibroblasts from LHON patients from oxidative stress.

[4] = BSO-stressed Huntington's fibroblasts (GM 04281), less than about 150 nM
[5] = BSO-stressed LHON fibroblasts (GM03858), less than about 150 nM

For CC1=C(C)C(=O)C(CCCC(=O)Nc2ccccc2C#N)=C(C)C1=O [N-(2-cyanophenyl)-4-(2,4,5-trimethyl-3,6-dioxocyclohexa-1,4-dienyl)butanamide], the EC50 [1] was < 150 nM, the EC50 [2, 4] was < 150 nM and the EC50 [3, 5] was < 150 nM.
In the case of CC1=C(C)C(=O)C(CCC(C)C(=O)NCCc2ccccc2)=C(C)C1=O (centres unmarked) [2-methyl-N-phenethyl-4-(2,4,5-trimethyl-3,6-dioxocyclohexa-1,4-dienyl)butanamide], the EC50 [1] is reported as < 150 nM, the EC50 [2, 4] is reported as < 150 nM and the EC50 [3, 5] is reported as < 150 nM.
For CC1=C(C)C(=O)C(CCNC(=O)N2CCN(C)CC2)=C(C)C1=O [4-methyl-N-(2-(2,4,5-trimethyl-3,6-dioxocyclohexa-1,4-dienyl)ethyl)piperazine-1-carboxamide], the EC50 [1] was < 150 nM, the EC50 [2, 4] was < 150 nM and the EC50 [3, 5] was < 150 nM.
For CC1=C(C)C(=O)C(CCNC(=O)c2ccc(C)cc2)=C(C)C1=O [4-methyl-N-(2-(2,4,5-trimethyl-3,6-dioxocyclohexa-1,4-dienyl)ethyl)benzamide], the EC50 [1] was < 150 nM, the EC50 [2, 4] was < 150 nM and the EC50 [3, 5] was < 150 nM.
With CC1=C(C)C(=O)C(CCCC(=O)Nc2cccnc2)=C(C)C1=O [N-(pyridin-3-yl)-4-(2,4,5-trimethyl-3,6-dioxocyclohexa-1,4-dienyl)butanamide] the EC50 [1] was < 150 nM, the EC50 [2, 4] was < 150 nM and the EC50 [3, 5] was < 150 nM.
With CC1=C(C)C(=O)C(CCC(C)C(=O)Nc2ccc(F)cc2)=C(C)C1=O (centres unmarked) [N-(4-fluorophenyl)-2-methyl-4-(2,4,5-trimethyl-3,6-dioxocyclohexa-1,4-dienyl)butanamide] the EC50 [1] was < 150 nM, the EC50 [2, 4] was < 150 nM and the EC50 [3, 5] was < 150 nM.
In the case of CC1=C(C)C(=O)C(CCCC(=O)Nc2ccccc2N)=C(C)C1=O [N-(2-aminophenyl)-4-(2,4,5-trimethyl-3,6-dioxocyclohexa-1,4-dienyl)butanamide], the EC50 [1] is reported as < 150 nM, the EC50 [2, 4] is reported as < 150 nM and the EC50 [3, 5] is reported as < 150 nM.
For CC1=C(C)C(=O)C(CCCC(=O)Nc2cc(Cl)cc(Cl)c2)=C(C)C1=O [N-(3,5-dichlorophenyl)-4-(2,4,5-trimethyl-3,6-dioxocyclohexa-1,4-dienyl)butanamide], the EC50 [1] was < 150 nM, the EC50 [2, 4] was < 150 nM and the EC50 [3, 5] was < 150 nM.
In the case of CC1=C(C)C(=O)C(CCCC(=O)NCCO)=C(C)C1=O [N-(2-hydroxyethyl)-4-(2,4,5-trimethyl-3,6-dioxocyclohexa-1,4-dienyl)butanamide], the EC50 [1] is reported as < 150 nM, the EC50 [2, 4] is reported as < 150 nM and the EC50 [3, 5] is reported as < 150 nM.
With CC(=O)c1ccc(C(=O)NCCC2=C(C)C(=O)C(C)=C(C)C2=O)cc1 [4-acetyl-N-(2-(2,4,5-trimethyl-3,6-dioxocyclohexa-1,4-dienyl)ethyl)benzamide] the EC50 [1] was < 150 nM, the EC50 [2, 4] was < 150 nM and the EC50 [3, 5] was < 150 nM.
In the case of CC1=C(C)C(=O)C(CCN(C)C(=O)Cc2ccc(Cl)cc2)=C(C)C1=O [2-(4-chlorophenyl)-N-methyl-N-(2-(2,4,5-trimethyl-3,6-dioxocyclohexa-1,4-dienyl)ethyl)acetamide], the EC50 [1] is reported as < 150 nM, the EC50 [2, 4] is reported as < 150 nM and the EC50 [3, 5] is reported as < 150 nM.
With CC1=C(C)C(=O)C(CCN(C)C(=O)NCCN(C)C)=C(C)C1=O [3-(2-(dimethylamino)ethyl)-1-methyl-1-(2-(2,4,5-trimethyl-3,6-dioxocyclohexa-1,4-dienyl)ethyl)urea] the EC50 [1] was < 150 nM, the EC50 [2, 4] was < 150 nM and the EC50 [3, 5] was < 150 nM.
With CC1=C(C)C(=O)C(CCC(C)(C)O)=C(CCNC(=O)CCCCC2CCSS2)C1=O (centres unmarked) [5-(1,2-Dithiolan-3-yl)-N-(2-(2-(3-hydroxy-3-methylbutyl)-4,5-dimethyl-3,6-dioxocyclohexa-1,4-dienyl)ethyl)pentanamide] the EC50 [1] was < 150 nM, the EC50 [2, 4] was < 150 nM and the EC50 [3, 5] was < 150 nM.
For CC1=C(C)C(=O)C(CCNC(=O)c2ccccc2)=C(C)C1=O [N-(2-(2,4,5-trimethyl-3,6-dioxocyclohexa-1,4-dienyl)ethyl)benzamide], the EC50 [1] was < 150 nM, the EC50 [2, 4] was < 150 nM and the EC50 [3, 5] was < 150 nM.
CC1=C(C)C(=O)C(CCC(C)(C)O)=C(CCNS(C)(=O)=O)C1=O [N-(2-(2-(3-hydroxy-3-methylbutyl)-4,5-dimethyl-3,6-dioxocyclohexa-1,4-dienyl)ethyl)methanesulfonamide] was tested, and the EC50 [1] was < 150 nM, the EC50 [2, 4] was < 150 nM and the EC50 [3, 5] was < 150 nM.
In the case of CC1=C(C)C(=O)C(CCNC(=O)NCCN2CCOCC2)=C(C)C1=O [1-(2-morpholinoethyl)-3-(2-(2,4,5-trimethyl-3,6-dioxocyclohexa-1,4-dienyl)ethyl)urea], the EC50 [1] is reported as < 150 nM, the EC50 [2, 4] is reported as < 150 nM and the EC50 [3, 5] is reported as < 150 nM.
With CCNC(=O)NCCC1=C(CCC(C)(C)O)C(=O)C(C)=C(C)C1=O [1-Ethyl-3-(2(2-(3-hydroxy-3-methylbutyl)-4,5-dimethyl-3,6-dioxocyclohexa-1,4-dienyl)ethyl)urea] the EC50 [1] was < 150 nM, the EC50 [2, 4] was < 150 nM and the EC50 [3, 5] was < 150 nM.
CC1=C(C)C(=O)C(CCC(C)(C)O)=C(CCNS(=O)(=O)c2ccc(C)cc2)C1=O [N-(2-(2-(3-hydroxy-3-methylbutyl)-4,5-dimethyl-3,6-dioxocyclohexa-1,4-dienyl)ethyl)-4-methylbenzenesulfonamide] was tested, and the EC50 [1] was < 150 nM, the EC50 [2, 4] was < 150 nM and the EC50 [3, 5] was < 150 nM.
For CC1=C(C)C(=O)C(CCCC(=O)NCc2cccnc2)=C(C)C1=O [N-(pyridin-3-ylmethyl)-4-(2,4,5-trimethyl-3,6-dioxocyclohexa-1,4-dienyl)butanamide], the EC50 [1] was < 150 nM, the EC50 [2, 4] was < 150 nM and the EC50 [3, 5] was < 150 nM.
In the case of CC1=C(C)C(=O)C(CCCC(=O)NCCc2ccncc2)=C(C)C1=O [N-(2-(pyridin-4-yl)ethyl)-4-(2,4,5-trimethyl-3,6-dioxocyclohexa-1,4-dienyl)butanamide], the EC50 [1] is reported as < 150 nM, the EC50 [2, 4] is reported as < 150 nM and the EC50 [3, 5] is reported as < 150 nM.
In the case of CC1=C(C)C(=O)C(CCNC(=O)N2CCC(=O)CC2)=C(C)C1=O [4-Oxo-N-(2-(2,4,5-trimethyl-3,6-dioxocyclohexa-1,4-dienyl)ethyl)piperidine-1-carboxamide], the EC50 [2] is reported as < 150 nM and the EC50 [3] is reported as < 150 nM.
For CC1=C(C)C(=O)C(CCC(C)(C)O)=C(CCNC(=O)c2ccccc2)C1=O [N-(2-(2-(3-hydroxy-3-methylbutyl)-4,5-dimethyl-3,6-dioxocyclohexa-1,4-dienyl)ethyl)-benzamide], the EC50 [1] was < 150 nM, the EC50 [2, 4] was < 150 nM and the EC50 [3, 5] was < 150 nM.
